Experiment [1] concerns CD46 expression. Kind of experiment: CD46 expression by RNA-sequencing in unpaired pre-treatment and post-treatment tumor biopsies. Type of experiment: in vivo, human. Particulars: for CD46 expression Post: post-treatment biopsies.
The test system of experiment [2] is CD46 expression. Description: CD46 expression by RNA-sequencing in paired tumor biopsies before and after therapy.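 As to all read-outs here: FFPE human tumor biopsies, exome-capture RNA-seq, reads aligned to GRCh37, counts normalized for GC content, length and depth, summed per gene, log2-transformed, samples paired before versus after therapy.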 The following applies: paired biopsies; for CD46 expression, Post-Treatment Biopsy / CD46 expression, Pre-Treatment Biopsy: RNA-seq log2-transformed counts.
Protocol: Gene expression was determined by RNA-sequencing from formalin-fixed, paraffin-embedded (FFPE) tumor samples using an exome capture-based protocol. Briefly, total nucleic acid was extracted from FFPE solid tumor samples. The RNA sample was treated with DNAse and reverse transcribed. cDNA was captured with a custom probe set targeting the human exome. A library was prepared from the captured cDNA and sequenced on the Illumina platform. Sequence read were aligned to GRCh37 using Kallisto and normalized to quantify gene expression. Specifically, transcript counts were corrected for GC content and length using quantile normalization and adjusted for sequencing depth via a size factor method. Normalized counts in protein coding transcripts covered by the exome panel were then summed to obtain gene-level counts. Subsequent expression analyses were performed on log2-transformed counts.
Setting [3] is: Breast Cancer, post minus pre, unpaired biopsies.
The mark [4] stands for this setting: Breast Cancer, post vs pre, unpaired biopsies.
Setting [5] is: Breast Cancer, log2-transformed RNA-seq counts.
The mark [6] stands for this setting: Prostate Cancer, Post minus Pre, unpaired biopsies, log2-transformed counts.
[7] abbreviates: Prostate Cancer, post- vs pre-treatment unpaired biopsies.
The mark [8] stands for this setting: Prostate Cancer, unpaired, RNA-seq log2-transformed normalized counts.
Setting [9] is: Breast Cancer, Post minus Pre, unpaired biopsies, log2-transformed counts.
Setting [10] is: Breast Cancer, post- vs pre-treatment unpaired biopsies.
[11] abbreviates: Breast Cancer, unpaired, RNA-seq log2-transformed normalized counts.
[12] abbreviates: Ovarian Cancer, Post minus Pre, unpaired biopsies, log2-transformed counts.
Where [13] appears, read: Ovarian Cancer, post- vs pre-treatment unpaired biopsies.
The mark [14] stands for this setting: Ovarian Cancer, unpaired, RNA-seq log2-transformed normalized counts.
The mark [15] stands for this setting: Esophageal Cancer, Post minus Pre, unpaired biopsies, log2-transformed counts.
Setting [16] is: Esophageal Cancer, post- vs pre-treatment unpaired biopsies.
The mark [17] stands for this setting: Esophageal Cancer, unpaired, RNA-seq log2-transformed normalized counts.
[18] abbreviates: Gastric Cancer, Post minus Pre, unpaired biopsies, log2-transformed counts.
[19] abbreviates: Gastric Cancer, post- vs pre-treatment unpaired biopsies.
[20] abbreviates: Gastric Cancer, unpaired, RNA-seq log2-transformed normalized counts.
Where [21] appears, read: Non-Small Cell Lung Cancer, Post minus Pre, unpaired biopsies, log2-transformed counts.
Setting [22] is: Non-Small Cell Lung Cancer, post- vs pre-treatment unpaired biopsies.
[23] abbreviates: Non-Small Cell Lung Cancer, unpaired, RNA-seq log2-transformed normalized counts.

In the case of `CCNC(=O)[C@@H]1CCCN1C(=O)[C@H](CCCNC(=N)N)NC(=O)[C@H](CC(C)C)NC(=O)[C@@H](CC(C)C)NC(=O)[C@H](Cc1ccc(O)cc1)NC(=O)[C@H](CO)NC(=O)[C@H](Cc1c[nH]c2ccccc12)NC(=O)[C@H](Cc1c[nH]cn1)NC(=O)[C@@H]1CCC(=O)N1` [leuprolide], the CD46 expression diff in experiment [1] (setting [3]) is recorded as −0.15. In addition, the “CD46 expression Percentage change” value in experiment [1] (setting [4]) is listed as −2.3%. For the same compound, in experiment [1] (setting [5]), the “CD46 expression Post” value is on record as 6.18. Besides, the “CD46 expression Pre” value in experiment [1] (Breast Cancer, pre-treatment biopsies, log2-transformed RNA-seq counts) amounted to 6.33. Moreover, the CD46 expression diff in experiment [1] (setting [6]) is recorded as −0.10. Also, the “CD46 expression Percentage change” value in experiment [1] (setting [7]) was −1.6%. Besides, the “CD46 expression Post” value in experiment [1] (setting [8]) worked out at 6.08. Moreover, in experiment [2] (Prostate Cancer), the “CD46 expression diff (post minus pre)” value is −0.19; the “Percent Change in CD46 expression” value is listed as −3.1%; the “CD46 expression, Post-Treatment Biopsy” value came out at 5.92; the “CD46 expression, Pre-Treatment Biopsy” value was found to be 6.11.
`O=C(c1cc(Cc2n[nH]c(=O)c3ccccc23)ccc1F)N1CCN(C(=O)C2CC2)CC1` [olaparib]: the results for the CD46 expression diff in experiment [1] (setting [9]) and in experiment [1] (setting [12]) were 0.04 and −0.02, respectively. In addition, the “CD46 expression Percentage change” value in experiment [1] (setting [10]) was 0.6%; in experiment [1] (setting [13]) it was −0.3%. The “CD46 expression Post” value in experiment [1] (setting [11]) is recorded as 6.15; in experiment [1] (setting [14]) it was 5.70. Moreover, the “CD46 expression diff (post minus pre)” value in experiment [2] (Ovarian Cancer) is given as −0.14. Besides, the “Percent Change in CD46 expression” value in experiment [2] (Ovarian Cancer) is reported as −2.5%. Further, in experiment [2] (Ovarian Cancer), the “CD46 expression, Post-Treatment Biopsy” value came out at 5.51.
For `C=CC(=O)Nc1cc(Nc2nccc(-c3cn(C)c4ccccc34)n2)c(OC)cc1N(C)CCN(C)C` [osimertinib], the CD46 expression diff in experiment [1] (Non-Small Cell Lung Cancer, post minus pre, unpaired biopsies) is reported as −0.29. Also, the “CD46 expression Percentage change” value in experiment [1] (Non-Small Cell Lung Cancer, post vs pre, unpaired biopsies) is −4.4%. In addition, in experiment [1] (Non-Small Cell Lung Cancer, log2-transformed RNA-seq counts), the “CD46 expression Post” value is given as 6.23. In experiment [2] (Non-Small Cell Lung Cancer), the “CD46 expression diff (post minus pre)” value is given as −0.26 and the “Percent Change in CD46 expression” value is reported as −4.0%.
`O=C1[O][Pt]2([NH][C@@H]3CCCC[C@H]3[NH]2)[O]C1=O` [oxaliplatin]: the CD46 expression diff in experiment [1] (Biliary Cancer, Post minus Pre, unpaired biopsies, log2-transformed counts) is 0.05; in experiment [1] (Colorectal Cancer, Post minus Pre, unpaired biopsies, log2-transformed counts), 0.04; in experiment [1] (setting [15]), −0.06; in experiment [1] (setting [18]) it was −0.12; in experiment [1] (Pancreatic Cancer, Post minus Pre, unpaired biopsies, log2-transformed counts), −0.13. Also, the “CD46 expression Percentage change” value in experiment [1] (Biliary Cancer, post- vs pre-treatment unpaired biopsies) is recorded as 0.9%; in experiment [1] (Colorectal Cancer, post- vs pre-treatment unpaired biopsies) it was 0.6%; in experiment [1] (setting [16]), −1.0%; in experiment [1] (setting [19]), −2.1%; in experiment [1] (Pancreatic Cancer, post- vs pre-treatment unpaired biopsies) it was −2.2%. Also, the “CD46 expression Post” value in experiment [1] (Biliary Cancer, unpaired, RNA-seq log2-transformed normalized counts) is on record as 5.91; in experiment [1] (Colorectal Cancer, unpaired, RNA-seq log2-transformed normalized counts), 6.42; in experiment [1] (setting [17]) it was 5.85; in experiment [1] (setting [20]), 5.66. In addition, the “CD46 expression diff (post minus pre)” value in experiment [2] (Colorectal Cancer) is listed as −0.04; in experiment [2] (Esophageal Cancer) it was −0.17; in experiment [2] (Gastric Cancer), 0.05; in experiment [2] (Pancreatic Cancer) it was 0.06. In addition, the “Percent Change in CD46 expression” value in experiment [2] (Colorectal Cancer) is given as −0.6%; in experiment [2] (Esophageal Cancer) it was −2.9%; in experiment [2] (Gastric Cancer) it was 0.8%; in experiment [2] (Pancreatic Cancer) it was 1.0%. Further, the “CD46 expression, Post-Treatment Biopsy” value was determined as 6.26 in experiment [2] (Colorectal Cancer), 5.74 in experiment [2] (Esophageal Cancer), 5.69 in experiment [2] (Gastric Cancer) and 5.93 in experiment [2] (Pancreatic Cancer). Also, the “CD46 expression, Pre-Treatment Biopsy” value is 6.30 in experiment [2] (Colorectal Cancer), 5.91 in experiment [2] (Esophageal Cancer), 5.64 in experiment [2] (Gastric Cancer) and 5.87 in experiment [2] (Pancreatic Cancer).
As for `CC(=O)O[C@H]1C(=O)[C@@]2(C)[C@H]([C@H](OC(=O)c3ccccc3)[C@]3(O)C[C@H](OC(=O)[C@H](O)[C@@H](NC(=O)c4ccccc4)c4ccccc4)C(C)=C1C3(C)C)[C@]1(OC(C)=O)CO[C@@H]1C[C@@H]2O` [paclitaxel], the CD46 expression diff in experiment [1] (setting [3]) is listed as −0.15; in experiment [1] (Endometrial Cancer, Post minus Pre, unpaired biopsies, log2-transformed counts), 0.03; in experiment [1] (setting [15]) it was −0.13; in experiment [1] (setting [18]), 0.04; in experiment [1] (Head and Neck Squamous Cell Carcinoma, Post minus Pre, unpaired biopsies, log2-transformed counts), 0.13; in experiment [1] (setting [21]), −0.07. Moreover, the CD46 expression diff in experiment [1] (setting [12]) is −0.01; in experiment [1] (Sarcoma, Post minus Pre, unpaired biopsies, log2-transformed counts) it was −0.09. Besides, the “CD46 expression Percentage change” value in experiment [1] (setting [4]) is on record as −2.4%; in experiment [1] (Endometrial Cancer, post- vs pre-treatment unpaired biopsies), 0.6%; in experiment [1] (setting [16]), −2.1%; in experiment [1] (setting [19]), 0.7%; in experiment [1] (Head and Neck Squamous Cell Carcinoma, post- vs pre-treatment unpaired biopsies), 2.4%; in experiment [1] (setting [22]), −1.1%. Besides, the “CD46 expression Percentage change” value in experiment [1] (setting [13]) is −0.1%; in experiment [1] (Sarcoma, post- vs pre-treatment unpaired biopsies), −1.7%. Moreover, the “CD46 expression Post” value is 6.04 in experiment [1] (setting [5]); 5.85 in experiment [1] (Endometrial Cancer, unpaired, RNA-seq log2-transformed normalized counts); 5.79 in experiment [1] (setting [17]); 5.82 in experiment [1] (setting [20]); 5.68 in experiment [1] (Head and Neck Squamous Cell Carcinoma, unpaired, RNA-seq log2-transformed normalized counts); 6.00 in experiment [1] (setting [23]). Besides, the “CD46 expression Post” value in experiment [1] (setting [14]) was found to be 5.73; in experiment [1] (Sarcoma, unpaired, RNA-seq log2-transformed normalized counts) it was 4.96. Moreover, the “CD46 expression diff (post minus pre)” value in experiment [2] (Breast Cancer) is on record as −0.09; in experiment [2] (Endometrial Cancer) it was 0.19; in experiment [2] (Esophageal Cancer), 0.05; in experiment [2] (Non-Small Cell Lung Cancer) it was −0.23; in experiment [2] (Ovarian Cancer), −0.04. The “Percent Change in CD46 expression” value in experiment [2] (Breast Cancer) is reported as −1.4%; in experiment [2] (Endometrial Cancer), 3.2%; in experiment [2] (Esophageal Cancer), 0.8%; in experiment [2] (Non-Small Cell Lung Cancer), −3.7%; in experiment [2] (Ovarian Cancer), −0.8%. The “CD46 expression, Post-Treatment Biopsy” value is 6.12 in experiment [2] (Breast Cancer); 6.01 in experiment [2] (Endometrial Cancer); 6.02 in experiment [2] (Esophageal Cancer); 5.89 in experiment [2] (Non-Small Cell Lung Cancer); 5.67 in experiment [2] (Ovarian Cancer).
Take `CC(=O)c1c(C)c2cnc(Nc3ccc(N4CCNCC4)cn3)nc2n(C2CCCC2)c1=O` [palbociclib]: the CD46 expression diff in experiment [1] (setting [9]) was found to be 0.01. The “CD46 expression Percentage change” value in experiment [1] (setting [10]) is reported as 0.2%. For the same compound, the “CD46 expression Post” value in experiment [1] (setting [11]) stood at 6.42. Besides, in experiment [2] (Breast Cancer), the “CD46 expression diff (post minus pre)” value was −0.17; the “Percent Change in CD46 expression” value is on record as −2.7%; the “CD46 expression, Post-Treatment Biopsy” value was 6.34.
As for `Nc1nc2[nH]cc(CCc3ccc(C(=O)N[C@@H](CCC(=O)O)C(=O)O)cc3)c2c(=O)[nH]1` [pemetrexed], the CD46 expression diff in experiment [1] (setting [21]) is given as −0.11. The “CD46 expression Percentage change” value in experiment [1] (setting [22]) is −1.8%. In experiment [1] (setting [23]), the “CD46 expression Post” value amounted to 6.27. In experiment [2] (Non-Small Cell Lung Cancer), the “CD46 expression diff (post minus pre)” value is −0.20; the “Percent Change in CD46 expression” value is on record as −3.1%; the “CD46 expression, Post-Treatment Biopsy” value came out at 6.22.
For `C[C@]12C=CC(=O)C=C1CC[C@@H]1[C@@H]2C(=O)C[C@@]2(C)[C@H]1CC[C@]2(O)C(=O)CO` [prednisone], the CD46 expression diff is on record as 0.02 in experiment [1] (setting [21]) and −0.10 in experiment [1] (setting [6]). Further, the “CD46 expression Percentage change” value in experiment [1] (setting [22]) was 0.3%; in experiment [1] (setting [7]), −1.7%. For the same compound, the “CD46 expression Post” value in experiment [1] (setting [8]) is 6.08. The “CD46 expression diff (post minus pre)” value in experiment [2] (Prostate Cancer) turned out to be 0.13. In addition, the “Percent Change in CD46 expression” value in experiment [2] (Prostate Cancer) came to 2.3%. In experiment [2] (Prostate Cancer), the “CD46 expression, Post-Treatment Biopsy” value came to 5.85.

The values above are taken from patent US20240058464A1 (Fortis Therapeutics, Inc., priority 2021, published 2024).
